Positions count from the first letter of the chain named.
How the values were obtained:
E1 and E2 = settings: cited from earlier work
pfSENP1 = settings: cited from earlier work
SENP1 mRNA = settings: cited from earlier work
Kir2.1 channels = biological target: T1, Kir2.1 channels (Homo sapiens, UniProt P63252); test: Whole-cell patch-clamp of heterologous Kir2.1 channels in HEK293T cells under hypoxia; type: cell-based; settings: agent in recording pipette (SENP1 2 μM)
T1 construct: expressed in transfected cells; host or cells: HEK293T
T1 sequence (P63252 1-427): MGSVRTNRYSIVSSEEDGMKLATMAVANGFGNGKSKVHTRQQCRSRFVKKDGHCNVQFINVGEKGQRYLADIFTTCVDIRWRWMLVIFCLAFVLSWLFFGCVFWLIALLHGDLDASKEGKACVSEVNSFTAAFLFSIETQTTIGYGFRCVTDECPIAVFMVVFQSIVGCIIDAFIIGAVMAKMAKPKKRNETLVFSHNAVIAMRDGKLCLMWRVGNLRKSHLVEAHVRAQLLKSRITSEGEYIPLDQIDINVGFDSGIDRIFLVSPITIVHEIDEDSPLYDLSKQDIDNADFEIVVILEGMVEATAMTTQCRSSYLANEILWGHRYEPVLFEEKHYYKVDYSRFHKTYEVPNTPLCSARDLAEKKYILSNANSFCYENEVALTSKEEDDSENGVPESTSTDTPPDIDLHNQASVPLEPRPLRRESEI
Protocol: (§1) To knockdown Kir2.1 expression, RVCMs were transduced with lentiviral particles carrying cGFP and shRNA targeting KCNJ2-mRNA for the channel. Kir2.1 knockdown cells (Kir2.1kd-CMs) were identified by expression of cGFP. Cells were studied with control pipette solution, or with pipette solutions containing purified SUMO1 (1 μM) or SENP1 (2 μM). Where indicated, the control pipette solution contained diC8 PIP2. Paired patch-clamp data were analyzed by Students t-test; ***, P<0.01. […] Kir2.1kd-CMs are identified by expression of GFP (inset, scale bar=10 μm). […] The arrow indicates the change in current-magnitude between exposure to ambient O2 and 2% O2 in the same cell. Right, Concentration-response curve showing that including diC8-PIP2 in the pipette opposes hypoxic-inhibition of IK1 in control RVCMs and RVCMs expressing the scrambled shRNA. The hypoxic-response is diminished in Kir2.1kd-CMs. Data are mean±s.d. for 7-8 cells per condition. […] Current inhibition is diminished when SENP1 is included in the recording pipette and is not observed when SUMO-insensitive Kir2.1-K49Q channels are studied. Data are mean±s.d. for 6 cells per condition.
Hypoxic-inhibition of IK1/Kir2.1 is reduced by diC8-PIP2 in a concentration-dependent manner. We have shown that adding the exogenous, soluble PIP2 analog diC8-PIP2 into the patch-pipette opposes hypoxic-inhibition of IK1 (FIG. 4). […]

[1] = biological target: T2, Kir2.1-mediated IK1 current (Rattus norvegicus, UniProt Q64273); test: Whole-cell patch-clamp of IK1 in rat ventricular cardiomyocytes under acute hypoxia; type: cell-based
T2 construct: endogenous in cells; host or cells: rat ventricular cardiomyocytes (RVCMs)
T2 sequence (Q64273 1-427): T1 sequence (P63252 1-427) with G119S, Y336C, D388E, T402S, D405G
Protocol: IK1 in rat ventricular cardiomyocytes studied by whole-cell patch-clamp. Hypoxia was a drop in O2 from ambient levels to 2%, measured at the cell. The time-course of hypoxic-inhibition was studied by recording the magnitude of IK1 every second. Cells were studied with the following pipette solutions: control, SUMO1 (1 μM) or SENP1 (2 μM). IK1 was blocked by the addition of 3 mM Ba^2+. […] Left, representative current sweeps; right, a representative time course showing the kinetics of hypoxic inhibition in cardiomyocytes studied with control pipette solution. The inhibition is precluded by including SENP1 (2 μM, magenta) in the recording pipette. The reverse ramp recording protocol is inset. […] SENP1 augments IK1 and protects the current from hypoxia. Data are from 8-10 RVCMs per group, **** P<0.0001, paired, two-tailed Student's […]. […] Representative data are shown with DAPI labeled nuclei and PLA interactions. Summary data are obtained from multiple experiments each with multiple fields of view containing 20-30 nuclei. The scale bar is 10 μm.
as §1
Hypoxic-inhibition of Kir2.1 in cardiomyocytes via SUMOylation. We studied the effects of acute hypoxia on IK1 in rat ventricular cardiomyocytes (RVCMs) by whole cell patch-clamp recording. […] Both the hypoxia-sensitive and insensitive components of the current were blocked by Ba^2+ (3 mM), consistent with the known role of Kir2 channels in mediating IK1 (FIG. 1a). To determine if SUMOylation mediates the hypoxic inhibition of IK1 we introduced purified SENP1 (2 μM) to the cytosol via the recording pipette. […] Both the SUMO1 and hypoxia-mediated inhibition of IK1 remained stable throughout the remainder of the experiment (up to 10 mins). […] Next, we visualized and quantified the interactions between native Kir2.1 and SUMO1 in RVCMs using the proximity-ligation association (PLA) assay with antibodies we validated in heterologous cells by Western blot. […] The validated Kir2 antibodies were paired with SUMO1 antibodies that we have tested and utilized before. Under control conditions, interactions were observed between Kir2.1 and SUMO1, but not between Kir2.2 or Kir2.3 and SUMO1. […] Although cardiomyocytes are typically cultured at 21% O2, the O2-level in the myocardium is estimated to be in the range of 5-10% O2, under physiological conditions.
Hypoxic-inhibition of IK1/Kir2.1 is reduced by diC8-PIP2 in a concentration-dependent manner. We have shown that adding the exogenous, soluble PIP2 analog diC8-PIP2 into the patch-pipette opposes hypoxic-inhibition of IK1 (FIG. 4). […] As before, the effects of hypoxia were ameliorated by SENP1 (2 μM) and were not observed in the SUMO and hypoxia insensitive Kir2.1-K49Q channels (FIG. 4D).

SUMOylation = settings: cited from earlier work

COC1=C(N)C(=O)c2[nH]cc(CO)c2C1=N [Compound 61]
ROS generation and E1/E2 crosslinking (E1 and E2): generated ROS and subsequent E1 and E2 crosslinking

O=C(O)CN(NC(=O)c1ccc(CNC(=O)c2cccc(C(=O)O)c2)cc1)C(=O)[C@H]1O[C@@H]1C(=O)N(Cc1cccc2ccccc12)Cc1cccc2ccccc12 [JCP-666]
pfSENP1 inhibition (pfSENP1): inhibitor

CC(C)[C@]12O[C@H]1[C@@H]1O[C@]13[C@]1(O[C@H]1C[C@H]1C4=C(CC[C@@]13C)C(=O)OC4)[C@@H]2O [Triptolide]
SENP1 mRNA levels (SENP1 mRNA): decreased SENP1 mRNA levels

CCCCCCCC(=O)OC[C@H](COP(=O)(O)O[C@@H]1[C@H](O)[C@H](O)[C@@H](OP(=O)(O)O)[C@H](OP(=O)(O)O)[C@H]1O)OC(=O)CCCCCCC [diC8-PIP2]
effect on hypoxic inhibition of Kir2.1 channels (Kir2.1 channels): concentration-dependent reduction in hypoxic inhibition | hypoxic inhibition of IK1 ([1]; 100 μM diC8-PIP2 in pipette, wild-type RVCMs, ~40% without): ~15% | effect on hypoxic inhibition of IK1 ([1]; ambient O2 to 2% O2, agent in pipette (SENP1 2 μM, SUMO1 1 μM, diC8-PIP2) or pretreatment (TAK981)): diminished the hypoxic-inhibition of IK1 in a concentration-dependent manner

CSC1=C(N)C(=O)c2[nH]cc(CO)c2C1=N [macrophilone A]
SUMOylation inhibition (SUMOylation): demonstrated SUMOylation inhibitory activity through formation of ROS | ROS generation and E1/E2 crosslinking (E1 and E2): generated ROS and subsequent E1 and E2 crosslinking

From patent publication US20240358731A1, “SUMO PATHWAY AS AN OXYGEN SENSOR RELEVANT TO THE PATHOPHYSIOLOGY OF PULMONARY ARTERY HYPERTENSION AND CARDIAC ARRHYTHMIA” (Northeastern University, priority 2023, published 2024)
